Read-outs that look alike come from different tables or passages of the source.
How the values were obtained:
[1] = biological target: PDE10 from 786-O (Homo sapiens, UniProt Q9Y233); assay: Inhibition and kinetics of PDE10 from 786-O (pooled fractions of the center peak); type: biochemical; details: for IC50: pooled center-peak fractions
Experimental: (§1) Fractions were pooled from a 786-O profile from the center peak.
as §1
(§2) Protein assays were determined using the Bio-Rad DC Protein Assay. A nonlinear regression to the Michalis-Menten equation in Prism was used to determine the Km and Vmax.
as §2

[2] = biological target: cloned and expressed human PDE10 (Homo sapiens, UniProt Q9Y233); details: cited from earlier work; for IC50 / Published IC50s on cloned PDE10, cAMP / Published IC50s on cloned PDE10, cGMP: literature values
Sequence of cloned and expressed human PDE10 (Q9Y233 1-779 isoform Q9Y233-1): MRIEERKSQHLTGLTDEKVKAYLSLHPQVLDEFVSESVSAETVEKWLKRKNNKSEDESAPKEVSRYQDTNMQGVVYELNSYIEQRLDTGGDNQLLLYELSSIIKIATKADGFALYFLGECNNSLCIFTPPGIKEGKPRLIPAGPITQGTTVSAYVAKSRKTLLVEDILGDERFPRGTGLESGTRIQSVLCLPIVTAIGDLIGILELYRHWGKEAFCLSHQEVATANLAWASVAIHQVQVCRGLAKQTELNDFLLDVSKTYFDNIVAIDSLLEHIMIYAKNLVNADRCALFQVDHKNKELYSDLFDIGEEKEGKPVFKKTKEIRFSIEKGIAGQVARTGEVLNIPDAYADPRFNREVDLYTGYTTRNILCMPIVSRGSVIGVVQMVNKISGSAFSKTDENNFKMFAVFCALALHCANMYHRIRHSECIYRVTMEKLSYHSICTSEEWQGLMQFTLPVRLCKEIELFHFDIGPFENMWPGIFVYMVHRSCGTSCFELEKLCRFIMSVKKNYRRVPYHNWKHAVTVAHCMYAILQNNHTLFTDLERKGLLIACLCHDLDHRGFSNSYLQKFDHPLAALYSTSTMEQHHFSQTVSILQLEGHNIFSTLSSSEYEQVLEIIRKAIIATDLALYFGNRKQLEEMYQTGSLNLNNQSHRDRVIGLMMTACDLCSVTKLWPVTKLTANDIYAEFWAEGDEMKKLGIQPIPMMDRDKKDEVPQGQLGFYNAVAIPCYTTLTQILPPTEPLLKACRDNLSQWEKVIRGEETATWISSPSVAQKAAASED

[3] = test system: 786-O cells; assay: Apoptosis on 786-O cells (Roche Cell Death Assay); type: cell-based, human; details: 48 hours with drug
Experimental: Testing of PDE10-Inhibiting Compounds for Apoptosis on Renal Carcinoma (786-O) Cells. […] After 24 hours, the media was removed and the same media containing the drug was added to the cells (0.1% DMSO final concentration). After 48 hours, apoptosis was detected using the Roche Cell Death Assay.

[4] = test system: 786-O cells; type: cell-based; details: Homo sapiens, 786-0, 144 h; 6 days with drug, sulforhodamine B
Experimental: Testing of Neoplastic Cell Growth Inhibition of PDE10-Inhibiting Compounds on Renal Cell Carcinoma (786-O) Cells. […] After 24 hours, the media was removed, and the same media containing the drug was added to the cells (0.1% DMSO final concentration).

[5] = read-out: μM IC50s on PDE10 from 786-O, cAMP, cAMP substrate at 0.09 μM, table: N = 2 average, EHNA, Milrinone, Rolipram N = 1
[6] = read-out: μM IC50s on PDE10 from 786-O, cGMP, cGMP substrate at 5.5 μM, table: N = 2 average, EHNA, Milrinone, Rolipram N = 1
[7] = read-out: Published IC50s on cloned PDE10, cAMP, cAMP as substrate
[8] = read-out: Published IC50s on cloned PDE10, cGMP, cGMP as substrate
[9] = μM IC50s on PDE10 from 786-O, cAMP, cAMP substrate at 0.09 μM, table: N = 2 average, EHNA, Milrinone, Rolipram N = 1
[10] = μM IC50s on PDE10 from 786-O, cGMP, cGMP substrate at 5.5 μM, table: N = 2 average, EHNA, Milrinone, Rolipram N = 1

Sequence of PDE10 from 786-O (Q9Y233 290-1055 limits assumed): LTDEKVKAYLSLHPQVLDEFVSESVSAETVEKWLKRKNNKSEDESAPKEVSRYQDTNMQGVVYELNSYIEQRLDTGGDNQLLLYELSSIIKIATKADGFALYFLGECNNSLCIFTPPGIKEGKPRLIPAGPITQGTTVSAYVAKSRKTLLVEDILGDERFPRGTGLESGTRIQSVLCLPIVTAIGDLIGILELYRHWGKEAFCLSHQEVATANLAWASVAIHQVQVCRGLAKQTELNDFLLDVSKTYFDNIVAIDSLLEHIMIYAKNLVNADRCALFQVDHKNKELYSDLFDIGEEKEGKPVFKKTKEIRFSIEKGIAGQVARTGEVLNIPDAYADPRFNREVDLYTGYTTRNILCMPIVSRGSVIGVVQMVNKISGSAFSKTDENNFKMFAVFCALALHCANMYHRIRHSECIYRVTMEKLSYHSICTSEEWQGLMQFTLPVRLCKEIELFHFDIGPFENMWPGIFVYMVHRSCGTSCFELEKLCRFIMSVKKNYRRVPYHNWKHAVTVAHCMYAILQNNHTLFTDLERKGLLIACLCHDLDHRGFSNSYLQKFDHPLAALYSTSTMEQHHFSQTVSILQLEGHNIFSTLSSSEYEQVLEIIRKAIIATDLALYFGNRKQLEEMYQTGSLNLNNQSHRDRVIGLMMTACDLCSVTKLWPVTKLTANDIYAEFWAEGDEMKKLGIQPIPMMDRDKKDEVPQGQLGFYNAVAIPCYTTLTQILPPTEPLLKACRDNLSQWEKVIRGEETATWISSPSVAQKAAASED

SMILES | IC50 [1, 5] [µM] | IC50 [1, 6] [µM] | IC50 [2, 7] [µM] | IC50 [2, 8] [µM] | IC50 [1, 9] [µM] | IC50 [1, 10] [µM] | Published IC50s on cloned PDE10, cGMP ([2]; cGMP as substrate) [µM] | also measured
CCCCCC[C@@H]([C@@H](C)O)n1cnc2c(N)ncnc21 (racemic) [EHNA] | 60 | 46 | > 100 | > 100 |  |  |  | 
COc1cc(/C=C2/C(C)=C(CC(=O)NCc3ccccc3)c3cc(F)ccc32)cc(OC)c1OC [Compound A, 1 H-indene-3-acetamide, 5-fluoro-2-methyl-N-(phenylmethyl)-1-[(3,4,5-trimethoxyphenyl)methylene]-, (1Z)] |  |  |  |  |  |  |  | IC50 ([1]; IC50 on PDE10 from 786-O (inhibition of cGMP PDE activity), FIG. 10): 0.031 µM; IC50 ([3]; Homo sapiens, 786-0, read-out: IC50 for induction of apoptosis in the 786-O cell line): 0.071 µM; IC50 [4]: 0.03 µM
O=C(O)C1CCN(c2nc(NCc3ccc4c(c3)OCO4)c3cc(Cl)ccc3n2)CC1 [Example E4021] | 2.8 | 3.2 | 7.2 | 4.2 |  |  |  | 
CC1=C(CC(=O)O)c2cc(F)ccc2/C1=C\c1ccc(S(C)(=O)=O)cc1 [Exisulind, exisulind, reference compound] |  |  |  |  |  |  |  | IC50 ([1]; IC50 on PDE10 from 786-O (inhibition of cGMP PDE activity), FIG. 8, 9): 134 µM; Induction of apoptosis in the 786-O cells [3]: did not show significant induction of apoptosis; IC50 [4]: 273 µM
CC(C)Cn1c(=O)n(C)c(=O)c2[nH]cnc21 [IBMX] | 4.5 | 6.3 | 17 | 11 |  |  |  | 
Cc1[nH]c(=O)c(C#N)cc1-c1ccncc1 [Milrinone] |  |  |  |  | 84 | 103 | >100 | Published IC50s on cloned PDE10, cAMP ([2]; cAMP as substrate): >100 µM
CCOC(=O)C1=C[C@]2(CC)CCCN3CCc4c(n1c1ccccc41)[C@@H]32 [Vinpocetine] |  |  |  |  | 38 | 45 | 73 | Published IC50s on cloned PDE10, cAMP ([2]; cAMP as substrate): 77 µM
CCCOc1ccccc1-c1nc2nn[nH]c2c(=O)[nH]1 [Zaprinast] |  |  |  |  | 13 | 17 | 14 | 
Nc1nc2c(ncn2[C@@H]2O[C@@H]3COP(=O)(O)O[C@H]3[C@H]2O)c(=O)[nH]1 [cGMP, cyclic 3′,5′-guanosine monophosphate] | 5.2 |  | 14 |  |  |  |  | Km ([1]; Michaelis-Menten plot, 30 min at 30° C., FIG. 4, 6, read-out: Km for the 786-O PDE): 6.5 µM; Vmax ([1]; pooled center-peak fraction): 461 pmol/min/mg; Km ([1]; pooled fractions 57-75 of PDE10, read-out: Km, average of three values (stdev in parenthesis)): 5.5 µM; Vmax ratio of cGMP/cAMP ([1]; times higher than Vmax for cAMP): 2.4; Vmax ratio of cGMP/cAMP, cloned and expressed PDE10 ([2]; Fujishige et al. 1999): 2.2; Km ([2]; Fujishige et al. 1999, read-out: Km published for cloned and expressed PDE10): 7.2 µM
